Measured values published in article PMC8766756, “Insights on Cancer Cell Inhibition, Subcellular Activities, and Kinase Profile of Phenylacetamides Pending 1H-Imidazol-5-One Variants” (Frontiers in Pharmacology, 2022).
Where “and” joins values, the source holds several entries; their conditions need not be identical. Identical values can stand only once.

Experiments:
Assay in all cases: PamChip tyrosine kinase microarray
Type in all cases: biochemical
Conditions in all cases: 0.1 µM, HL60 lysate
Arg (P42684) = target: T1, Arg (P42684) (Homo sapiens, UniProt P42684)
T1 construct: purchased PamGene (PamChip PTK array, Upstream Kinase Analysis)
T1 sequence (P42684 whole entry): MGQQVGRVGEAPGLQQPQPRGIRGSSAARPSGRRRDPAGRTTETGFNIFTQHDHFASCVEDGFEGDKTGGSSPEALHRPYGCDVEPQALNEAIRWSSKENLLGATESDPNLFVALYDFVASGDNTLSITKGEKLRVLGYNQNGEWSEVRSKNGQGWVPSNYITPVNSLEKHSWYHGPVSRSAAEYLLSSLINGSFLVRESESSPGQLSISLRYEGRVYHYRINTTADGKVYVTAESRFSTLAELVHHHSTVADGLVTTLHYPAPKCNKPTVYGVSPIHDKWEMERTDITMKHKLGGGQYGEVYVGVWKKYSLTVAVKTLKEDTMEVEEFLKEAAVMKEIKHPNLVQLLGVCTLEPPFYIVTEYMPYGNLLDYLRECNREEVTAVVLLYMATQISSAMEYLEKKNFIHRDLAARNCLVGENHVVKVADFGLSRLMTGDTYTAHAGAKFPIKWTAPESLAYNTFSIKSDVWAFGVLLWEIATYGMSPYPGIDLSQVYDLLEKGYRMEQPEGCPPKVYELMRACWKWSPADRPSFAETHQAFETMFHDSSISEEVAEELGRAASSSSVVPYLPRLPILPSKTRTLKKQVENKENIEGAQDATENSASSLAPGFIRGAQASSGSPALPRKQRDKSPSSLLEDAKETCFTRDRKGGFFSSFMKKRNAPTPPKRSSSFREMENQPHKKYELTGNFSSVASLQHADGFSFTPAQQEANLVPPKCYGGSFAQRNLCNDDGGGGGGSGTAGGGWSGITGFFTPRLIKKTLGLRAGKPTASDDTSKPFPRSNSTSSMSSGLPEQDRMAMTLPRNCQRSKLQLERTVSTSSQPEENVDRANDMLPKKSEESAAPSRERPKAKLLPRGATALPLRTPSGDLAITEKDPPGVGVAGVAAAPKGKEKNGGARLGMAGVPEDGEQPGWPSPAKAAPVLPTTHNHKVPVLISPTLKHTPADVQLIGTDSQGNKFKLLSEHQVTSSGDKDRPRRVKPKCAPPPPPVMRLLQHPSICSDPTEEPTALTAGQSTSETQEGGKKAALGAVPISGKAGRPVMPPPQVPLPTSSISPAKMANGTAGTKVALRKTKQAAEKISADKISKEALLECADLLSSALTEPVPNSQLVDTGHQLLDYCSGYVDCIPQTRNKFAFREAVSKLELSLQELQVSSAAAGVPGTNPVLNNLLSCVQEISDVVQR
Protocol: (§1) The reproducible high potency of KIM-161 on leukemia cell lines was initially speculated to encompass Src tyrosine kinase inhibition. Even so, we also suspected that KIM-161 might be affecting other tyrosine kinases because the HL60 cells are not among the most Src-dependent highly proliferative cells ([Collins, 1987]). Therefore, a profiling of the kinase activities was performed after treatment with KIM-161 using PamChip® tyrosine kinase microarray. This analysis is based on incubation of cell lysate with 3D microarray that projects peptides specific for 143 tyrosine kinases. If a kinase is modified in the cells, it will be detected by phosphorylating its specific peptide in the microarray.
(§2) This test measured the activities of an array of tyrosine kinases of treated HL60 cells compared to the control (untreated cells) after incubation with KIM-161 for 48 h at concentrations of 0.001, 0.01, 0.1, 1.0, 10, and 50 µM. The log fold change (LFC) heat map was initially used to identify significant peptides affected at each concentration (Figure 5).
(§3) An Upstream Kinase Tool was used to generate a putative list of kinases responsible for phosphorylating the phosphosites on the PamChip®. It is an interpretation and is highly dependent on the contents of the underlying phosphorylation databases. Kinase score (Table 2) was used for ranking kinases based on their significance and specificity in terms of the set of peptides used for the corresponding kinase. Kinase statistics indicates the overall change of the peptide set that represents a certain kinase. Kinase statistics value of <0 indicates lower kinase activity in the lysate spiked with the compound and vice versa. Table 2 lists the 20 most changed kinases within treated HL60 cell lysates by 0.1 μM KIM-161.
(§4) Every compound had spiked into a leukemic (AML) cell line HL60 lysate at different concentrations (0.001, 0.01, 0.1, 1, 10, and 50 μM). In addition, DMSO had also spiked at a low concentration (2% v/v) to the HL60 lysate as the control. The samples were profiled on PamGene's tyrosine kinase (PTK) arrays in technical replicates, covering a total of 196 phosphorylation sites. The frozen leukemic HL60 cultured cell pellet was sent to PamGene. At PamGene, the cells were lysed in the presence of the lysis buffer and proteases inhibitor cocktail. The protein concentration was measured using the standard Bradford assay as per the PamGene SOPs. These lysates were further used for generating the PTK activity profiles. For spiking, KIM-161 was received in powder form and dissolved in DMSO at the PamGene facility, followed by storing it at −20°C in small aliquots. PamGene used its in-house bioinformatics toolbox in combination with other methods to generate the hypotheses of signaling pathways.

CTK (P42679) = target: T2, CTK (P42679) (Homo sapiens, UniProt P42679)
T2 construct: purchased PamGene (PamChip PTK array, Upstream Kinase Analysis)
T2 sequence (P42679 1-507): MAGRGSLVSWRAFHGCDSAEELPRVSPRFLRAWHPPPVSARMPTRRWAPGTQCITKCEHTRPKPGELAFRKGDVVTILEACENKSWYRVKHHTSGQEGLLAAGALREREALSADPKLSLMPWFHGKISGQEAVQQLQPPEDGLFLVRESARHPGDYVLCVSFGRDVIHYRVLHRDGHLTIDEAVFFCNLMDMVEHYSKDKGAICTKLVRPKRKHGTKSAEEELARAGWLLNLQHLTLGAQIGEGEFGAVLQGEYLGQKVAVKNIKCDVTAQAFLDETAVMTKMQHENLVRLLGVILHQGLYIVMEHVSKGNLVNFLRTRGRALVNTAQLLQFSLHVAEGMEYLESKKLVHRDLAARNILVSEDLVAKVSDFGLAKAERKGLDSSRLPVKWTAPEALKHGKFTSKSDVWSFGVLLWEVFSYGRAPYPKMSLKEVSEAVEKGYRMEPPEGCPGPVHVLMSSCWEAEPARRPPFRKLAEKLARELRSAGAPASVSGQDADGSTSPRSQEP
Protocol: as §1, §2, §3, §4

FmS/CSFR (P07333) = target: T3, FmS/CSFR (P07333) (Homo sapiens, UniProt P07333)
T3 construct: purchased PamGene (PamChip PTK array, Upstream Kinase Analysis)
T3 sequence (P07333 20-972, one chain of several): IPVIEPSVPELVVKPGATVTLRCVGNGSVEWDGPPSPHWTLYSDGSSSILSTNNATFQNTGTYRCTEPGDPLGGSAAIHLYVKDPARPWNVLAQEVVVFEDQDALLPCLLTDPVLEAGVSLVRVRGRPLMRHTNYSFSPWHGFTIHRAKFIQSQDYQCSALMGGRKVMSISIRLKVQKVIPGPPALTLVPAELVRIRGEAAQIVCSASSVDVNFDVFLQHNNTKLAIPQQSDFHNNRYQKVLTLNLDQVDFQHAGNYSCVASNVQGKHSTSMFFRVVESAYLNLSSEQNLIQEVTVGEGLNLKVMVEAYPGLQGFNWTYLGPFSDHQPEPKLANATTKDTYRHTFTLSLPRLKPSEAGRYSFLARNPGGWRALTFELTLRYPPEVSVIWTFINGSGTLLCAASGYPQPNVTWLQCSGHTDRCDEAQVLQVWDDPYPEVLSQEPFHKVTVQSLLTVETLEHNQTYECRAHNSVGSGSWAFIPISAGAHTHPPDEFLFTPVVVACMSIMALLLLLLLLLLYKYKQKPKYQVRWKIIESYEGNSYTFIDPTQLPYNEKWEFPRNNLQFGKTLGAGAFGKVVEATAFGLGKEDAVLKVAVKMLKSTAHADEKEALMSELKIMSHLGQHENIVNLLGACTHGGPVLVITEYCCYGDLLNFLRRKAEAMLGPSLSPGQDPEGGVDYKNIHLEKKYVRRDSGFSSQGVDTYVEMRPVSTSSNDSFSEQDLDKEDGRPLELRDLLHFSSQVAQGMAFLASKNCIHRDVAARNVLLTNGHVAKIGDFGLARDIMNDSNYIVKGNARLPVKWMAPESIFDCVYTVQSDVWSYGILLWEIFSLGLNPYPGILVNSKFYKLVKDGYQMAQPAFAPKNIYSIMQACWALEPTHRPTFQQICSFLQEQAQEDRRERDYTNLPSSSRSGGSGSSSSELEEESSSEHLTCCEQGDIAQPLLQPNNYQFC
Protocol: as §1, §2, §3, §4

RYK (H0Y8A4) = target: T4, RYK (H0Y8A4) (Homo sapiens, UniProt P34925)
T4 construct: purchased PamGene (PamChip PTK array, Upstream Kinase Analysis)
T4 sequence (P34925 26-607, one chain of several): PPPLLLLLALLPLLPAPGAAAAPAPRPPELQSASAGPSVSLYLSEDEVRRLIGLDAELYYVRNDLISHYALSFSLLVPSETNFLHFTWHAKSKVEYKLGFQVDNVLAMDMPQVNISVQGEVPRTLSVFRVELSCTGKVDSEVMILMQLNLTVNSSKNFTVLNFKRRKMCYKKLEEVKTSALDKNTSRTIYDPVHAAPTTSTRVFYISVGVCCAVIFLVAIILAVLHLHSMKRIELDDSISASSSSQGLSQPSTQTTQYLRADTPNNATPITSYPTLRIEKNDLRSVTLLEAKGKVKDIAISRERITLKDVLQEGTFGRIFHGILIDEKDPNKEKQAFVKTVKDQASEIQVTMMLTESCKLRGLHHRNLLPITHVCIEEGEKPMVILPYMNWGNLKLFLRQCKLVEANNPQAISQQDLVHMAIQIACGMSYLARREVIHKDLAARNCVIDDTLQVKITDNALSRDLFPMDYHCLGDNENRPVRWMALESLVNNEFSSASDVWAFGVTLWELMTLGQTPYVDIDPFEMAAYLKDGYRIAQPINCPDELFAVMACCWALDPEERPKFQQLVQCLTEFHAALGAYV
Protocol: as §1, §2, §3, §4

SRM (Q9H3Y6) = target: T5, SRM (Q9H3Y6) (Homo sapiens, UniProt Q9H3Y6)
T5 construct: purchased PamGene (PamChip PTK array, Upstream Kinase Analysis)
T5 sequence (Q9H3Y6 whole entry): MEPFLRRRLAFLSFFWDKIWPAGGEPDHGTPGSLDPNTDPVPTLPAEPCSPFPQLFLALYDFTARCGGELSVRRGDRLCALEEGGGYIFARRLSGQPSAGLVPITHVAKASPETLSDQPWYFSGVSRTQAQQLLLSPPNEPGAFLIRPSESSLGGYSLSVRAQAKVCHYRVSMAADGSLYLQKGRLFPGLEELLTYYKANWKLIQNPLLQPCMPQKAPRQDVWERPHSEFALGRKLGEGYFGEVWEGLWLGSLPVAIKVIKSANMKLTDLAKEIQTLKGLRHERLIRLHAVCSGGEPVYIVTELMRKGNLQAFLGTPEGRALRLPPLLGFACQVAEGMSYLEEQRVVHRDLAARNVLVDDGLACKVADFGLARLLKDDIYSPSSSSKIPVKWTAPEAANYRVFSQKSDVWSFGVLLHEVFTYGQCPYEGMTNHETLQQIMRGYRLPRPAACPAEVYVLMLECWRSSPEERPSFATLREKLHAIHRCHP
Protocol: as §1, §2, §3, §4

TRKA (P04629) = target: T6, TRKA (P04629) (Homo sapiens, UniProt P04629)
T6 construct: purchased PamGene (PamChip PTK array, Upstream Kinase Analysis)
T6 sequence (P04629 33-796): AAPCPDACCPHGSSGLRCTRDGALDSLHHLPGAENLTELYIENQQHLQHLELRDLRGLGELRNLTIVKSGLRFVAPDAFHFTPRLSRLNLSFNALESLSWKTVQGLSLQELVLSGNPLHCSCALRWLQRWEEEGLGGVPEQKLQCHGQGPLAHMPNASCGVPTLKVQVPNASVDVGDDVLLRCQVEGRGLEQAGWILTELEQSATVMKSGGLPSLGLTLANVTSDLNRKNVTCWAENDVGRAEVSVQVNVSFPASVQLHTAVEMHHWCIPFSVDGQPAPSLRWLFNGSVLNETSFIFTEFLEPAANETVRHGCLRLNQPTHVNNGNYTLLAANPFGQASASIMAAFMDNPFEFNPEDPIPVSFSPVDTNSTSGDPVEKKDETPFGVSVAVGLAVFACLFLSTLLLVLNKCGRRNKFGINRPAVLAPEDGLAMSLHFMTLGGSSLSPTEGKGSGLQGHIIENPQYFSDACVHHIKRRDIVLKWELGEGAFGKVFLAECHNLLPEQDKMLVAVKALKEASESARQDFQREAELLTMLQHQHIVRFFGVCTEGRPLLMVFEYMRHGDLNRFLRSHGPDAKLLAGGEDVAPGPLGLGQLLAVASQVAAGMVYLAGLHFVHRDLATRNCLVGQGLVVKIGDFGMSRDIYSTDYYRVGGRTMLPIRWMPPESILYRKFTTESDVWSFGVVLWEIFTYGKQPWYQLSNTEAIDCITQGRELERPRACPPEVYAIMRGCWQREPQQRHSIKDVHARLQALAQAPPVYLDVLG
Protocol: as §1, §2, §3, §4

## COc1ccc(/C=C2\N=C(C)N(c3ccc(CC(=O)NCc4ccccc4)cc3)C2=O)cc1 [Compound 4c, (Z)-N-Benzyl-2-(4-(4-(4-methoxybenzylidene)-2-methyl-5-oxo-4,5-dihydro-1H-imidazol-1-yl)phenyl)acetamide]
Arg (P42684)
  Mean Final score (Kinase score): 2.115
  Mean Kinase Statistic: -1.085
  Mean Significance Score: 2.048
  Mean Specificity Score: 0.07369
CTK (P42679)
  Mean Final score (Kinase score): 2.298
  Mean Kinase Statistic: -1.147
  Mean Significance Score: 2.048
  Mean Specificity Score: 0.2322
FmS/CSFR (P07333)
  Mean Final score (Kinase score): 2.549
  Mean Kinase Statistic: -1.225
  Mean Significance Score: 2.048
  Mean Specificity Score: 0.582
RYK (H0Y8A4)
  Mean Final score (Kinase score): 2.574
  Mean Kinase Statistic: -1.293
  Mean Significance Score: 2.048
  Mean Specificity Score: 0.5126
SRM (Q9H3Y6)
  Mean Significance Score: 2.048
  Mean Specificity Score: 1.961
SRM (Q9H3Y6); listed as KIM-161
  Mean Final score (Kinase score): 4.1 and 4.097
TRKA (P04629)
  Mean Final score (Kinase score): 2.339
  Mean Kinase Statistic: -1.138
  Mean Significance Score: 2.048
  Mean Specificity Score: 0.2694
